Test results published in patent US8916559B2, “Crystalline compound of 7-[(3R)-3-amino-1-oxo-4-(2, 4, 5-trifluorophenyl)butyl]-5, 6, 7, 8-tetrahydro-3-(tri fluoromethyl)-1, 2, 4 -triazolo[4,3-A]pyrazin” (Sandoz AG, priority 2009, dated 2014).
Where a name gives a salt, the structure may show the parent alone. One block for each compound: values may come before it.

Assays:
[1] = Dynamic water vapor sorption measurements (hygroscopicity); type: physicochemical; details: for H2O content at 50% r.h. / H2O content at 90% r.h.: dynamic water vapor sorption; for H2O content at 90% r.h.: 90% relative humidity; for hygroscopic behaviour (water adsorption, in words): identical measurement conditions, high relative humidities
Source text: Amorphous or mesomorphous forms of a compound can have a very much stronger tendency toward hygroscopicity than crystalline forms. The sitagliptin fumarate compounds described here are characterized in that they have good hygroscopic properties, i.e. absorb little water at high relative humidity. This is evident from table 1 below, which compares the water contents of the crystalline fumarate form A and crystalline hydrochloride at 50% and 90% relative humidity. The data originate from dynamic water vapor adsorption measurements. The water vapor sorption measurement is a suitable method for investigating the hygroscopic properties of solid substances. Water vapor sorption measurements can be carried out in different ways. In general, in this connection, a small sample of ca. 10-30 mg is introduced into a microbalance in a suitable sample carrier. The sample is then exposed to different relative humidities in accordance with a defined program, the change in the sample mass being simultaneously recorded over the time. As a result, insights into the hygroscopic behavior of a substance can be obtained.
Dynamic water vapor adsorption measurements were carried out using an SPS11-100n instrument, manufactured by “Projekt Messtechnik” in Ulm, Germany. For this, ca. 20 mg of the sample were weighed into an aluminum support and this was inserted into the measurement chamber of the instrument. The sample was then subjected to preselected relative humidities in accordance with a defined program, the change in mass being determined over the time. The following measurement program was used: 50% r.h. constant for two hours, then changing the relative humidity to 0% r.h., then changing the relative humidity to 96% r.h., constant at 96% r.h. for four hours and then changing the relative humidity to 50% r.h. and then constant at 50% r.h. for one hour. The change rates set were in each case 5% per hour.

[2] = at temperatures above 40° C.; hydrate of WO 2005/003135; cited from earlier work
[3] = hydrochloride of WO 03/004498 A1; cited from earlier work

water content at 50% relative humidity ([1]; 50% relative humidity): ca. 0.3%
H2O content at 50% r.h. ([1]; 50% relative humidity, listed as Crystalline sitagliptin fumarate form A): 0.25%
H2O content at 90% r.h. ([1]; listed as Crystalline sitagliptin fumarate form A): 1.33%
additional water absorbed compared with 50% relative humidity ([1]; after four hours at 96% relative humidity): ca. 1%
hygroscopic behaviour (water adsorption, in words) [1]: absorbs only a small amount of water
Compound: N[C@@H](CC(=O)N1CCn2c(nnc2C(F)(F)F)C1)Cc1cc(F)c(F)cc1F [form A, 7-[(3R)-3-amino-1-oxo-4-(2,4,5-trifluorophenyl)butyl]-5,6,7,8-tetrahydro-3-(trifluoromethyl)-1,2,4-triazolo[4,3-a]pyrazine]

Compound: N[C@@H](CC(=O)N1CCn2c(nnc2C(F)(F)F)C1)Cc1cc(F)c(F)cc1F.O=P(O)(O)O [sitagliptin dihydrogenphosphate salt]
phase stability (in words) [2]: phase-unstable

H2O content at 50% r.h. ([1]; 50% relative humidity, hydrochloride): >2.7%^
H2O content at 90% r.h. ([1]; hydrochloride): >3.6%^
hygroscopic behaviour (water adsorption, in words) ([1]; listed as crystalline sitagliptin hydrochloride monohydrate, hydrochloride): adsorbs significantly more water
Compound: N[C@@H](CC(=O)N1CCn2c(nnc2C(F)(F)F)C1)Cc1cc(F)c(F)cc1F [sitagliptin hydrochloride]
hygroscopicity (in words) [3]: hygroscopic
